Molecules are shown by their SMILES.

The values below come from paper PMC10539361, “Allosteric modulation of the fish taste receptor type 1 (T1R) family by the extracellular chloride ion” (Scientific Reports, 2023).

The target of one assay is T1, zfT1R2b/zfT1R3 (Danio rerio, UniProt A0A8M1NDZ5+Q2MHK9).
T1 sequence (A0A8M1NDZ5 18-823): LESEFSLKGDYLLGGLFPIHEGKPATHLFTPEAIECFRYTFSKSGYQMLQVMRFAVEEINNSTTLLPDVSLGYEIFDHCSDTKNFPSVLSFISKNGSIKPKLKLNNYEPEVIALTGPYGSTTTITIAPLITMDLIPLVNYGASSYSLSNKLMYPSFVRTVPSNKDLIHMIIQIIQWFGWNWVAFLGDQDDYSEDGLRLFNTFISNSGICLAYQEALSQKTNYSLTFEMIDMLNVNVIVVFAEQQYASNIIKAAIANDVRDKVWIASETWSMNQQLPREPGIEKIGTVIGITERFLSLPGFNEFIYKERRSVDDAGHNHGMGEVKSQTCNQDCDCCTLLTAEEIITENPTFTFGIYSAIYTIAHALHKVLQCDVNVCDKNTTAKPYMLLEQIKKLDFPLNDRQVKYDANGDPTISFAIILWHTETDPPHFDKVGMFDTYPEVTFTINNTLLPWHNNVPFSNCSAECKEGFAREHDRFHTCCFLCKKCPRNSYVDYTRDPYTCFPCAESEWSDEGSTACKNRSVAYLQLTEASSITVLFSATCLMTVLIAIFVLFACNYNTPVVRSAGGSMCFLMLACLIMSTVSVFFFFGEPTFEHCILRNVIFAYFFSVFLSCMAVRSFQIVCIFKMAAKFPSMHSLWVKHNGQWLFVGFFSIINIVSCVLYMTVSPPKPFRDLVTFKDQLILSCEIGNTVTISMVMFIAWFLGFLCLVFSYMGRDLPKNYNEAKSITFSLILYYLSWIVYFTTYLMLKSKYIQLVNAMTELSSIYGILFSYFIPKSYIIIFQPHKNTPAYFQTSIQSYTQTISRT
T1 sequence (Q2MHK9 25-850): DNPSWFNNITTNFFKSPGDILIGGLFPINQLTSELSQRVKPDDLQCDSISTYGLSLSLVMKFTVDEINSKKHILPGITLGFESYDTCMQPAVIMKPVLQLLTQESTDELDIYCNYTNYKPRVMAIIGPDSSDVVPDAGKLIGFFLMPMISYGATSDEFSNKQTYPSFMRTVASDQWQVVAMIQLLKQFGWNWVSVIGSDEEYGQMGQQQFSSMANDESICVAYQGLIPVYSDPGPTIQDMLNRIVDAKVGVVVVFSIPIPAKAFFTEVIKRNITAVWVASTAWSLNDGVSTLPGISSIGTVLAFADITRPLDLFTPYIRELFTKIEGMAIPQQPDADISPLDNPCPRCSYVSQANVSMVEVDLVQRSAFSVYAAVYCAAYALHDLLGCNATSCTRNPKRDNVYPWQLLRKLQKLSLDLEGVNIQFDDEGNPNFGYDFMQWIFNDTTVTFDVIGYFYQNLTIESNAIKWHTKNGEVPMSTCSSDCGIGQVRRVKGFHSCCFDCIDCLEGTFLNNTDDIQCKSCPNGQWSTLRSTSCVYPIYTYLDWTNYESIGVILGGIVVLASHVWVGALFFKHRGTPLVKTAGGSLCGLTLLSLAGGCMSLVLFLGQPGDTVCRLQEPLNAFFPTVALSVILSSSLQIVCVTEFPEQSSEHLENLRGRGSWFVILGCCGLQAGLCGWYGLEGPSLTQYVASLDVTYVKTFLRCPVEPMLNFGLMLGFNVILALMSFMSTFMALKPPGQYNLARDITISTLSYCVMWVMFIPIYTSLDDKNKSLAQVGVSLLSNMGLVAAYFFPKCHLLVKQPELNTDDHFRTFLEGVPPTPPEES
The experiment in a line: Ca2+ mobilization dose-response assay, stable cells expressing zfT1R2b/zfT1R3 with G16gust44. In general terms: Calcium flux is commonly read through the fluorescence of an indicator in the cells.

A further assay has as its target T2, zfT1R2a/zfT1R3 (Danio rerio, UniProt A0A8M1N8F9+Q2MHK9).
T2 sequence (A0A8M1N8F9 26-825): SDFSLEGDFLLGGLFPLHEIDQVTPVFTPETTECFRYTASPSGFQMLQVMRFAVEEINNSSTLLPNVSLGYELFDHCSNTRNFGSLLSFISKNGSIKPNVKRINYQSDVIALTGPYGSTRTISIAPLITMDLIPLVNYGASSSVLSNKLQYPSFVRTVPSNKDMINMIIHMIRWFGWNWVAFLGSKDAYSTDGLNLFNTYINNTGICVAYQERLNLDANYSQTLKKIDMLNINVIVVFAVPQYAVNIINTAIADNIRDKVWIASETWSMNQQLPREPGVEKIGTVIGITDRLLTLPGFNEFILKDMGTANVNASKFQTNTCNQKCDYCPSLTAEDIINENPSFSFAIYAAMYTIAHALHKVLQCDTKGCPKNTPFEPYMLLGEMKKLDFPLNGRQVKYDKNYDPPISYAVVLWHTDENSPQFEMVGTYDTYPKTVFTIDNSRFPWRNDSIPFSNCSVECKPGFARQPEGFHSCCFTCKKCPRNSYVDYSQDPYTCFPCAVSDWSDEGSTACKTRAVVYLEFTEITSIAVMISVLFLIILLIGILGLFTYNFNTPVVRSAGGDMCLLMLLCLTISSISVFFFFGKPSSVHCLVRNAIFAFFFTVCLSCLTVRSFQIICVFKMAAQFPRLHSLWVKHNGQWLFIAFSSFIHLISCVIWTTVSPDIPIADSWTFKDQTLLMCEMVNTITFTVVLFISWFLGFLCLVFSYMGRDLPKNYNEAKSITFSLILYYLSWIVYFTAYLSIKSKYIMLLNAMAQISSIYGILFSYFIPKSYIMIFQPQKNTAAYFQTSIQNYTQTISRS
T2 sequence (Q2MHK9 25-850): T1 sequence (Q2MHK9 25-850)
As to the kind of experiment: Effect of anions, cations and osmotic pressure on cellular responses, cells in 10 mM Cl- buffer, zfT1R2a/zfT1R3. The following applies: for response to fixed concentration of L-Pro on coapplication: coapplied with 160 µM L-Pro, final [Cl-]o up to 60 mM. Format: cell-based, zebrafish. The protocol: Cells were seeded in 96-well plates coated with ε-poly-L-lysine at approximately 70,000 cells per well. […] Fluorescence changes were monitored at 2 s intervals, as described above. […] Three independent experiments were conducted for each receptor, and representative results are shown as the mean ± SEM (n = 3 replicates). Statistical tests were conducted using KyPlot version 6.0 (KyensLab Inc., Tokyo, Japan). Statistical significance was set at p < 0.05.

Method for zfT1R2b/zfT1R3: The buffers with lower Cl^− were prepared by progressively replacing NaCl, KCl, CaCl2 and MgCl2 in the buffer with gluconate equivalents[20]. The pH was adjusted to 7.4 with NaOH. Ligands were diluted with the assay buffers at the desired concentrations.
Measurements of the responses of the cells by cell-based assay based on the intracellular Ca^2+ mobilization were carried out as described previously with some modifications[20],[34],[46],[47]. […] The cells were seeded in 96-well plates (clear-bottomed CellBIND surface plate, Corning, Glendale, AZ, USA) coated with ε-poly-L-lysine (Cosmo Bio, Tokyo, Japan) at approximately 70,000 cells per well. After 20 h, the medium was removed and replaced with high Cl^− buffer. After 3 h 30 min incubation at 27 °C, cells were loaded with 5 µM calcium-indicator dye Fluo-8 AM (AAT Bioquest, Sunnyvale, CA, USA) diluted in high Cl^− buffer. After incubation for 30 min at 27 °C, the cells were washed with buffers containing appropriate concentrations of Cl^−. The cellular assay was initiated after 3–5 min of resting and was completed within 5 min. The measurements were made using FlexStation 3 (Molecular Devices, Sunnyvale, CA, USA) at 27 °C. Fluorescence changes (i.e., excitation at 485 nm and emission at 525 nm with a cutoff at 515 nm) were monitored at 2 s intervals. A 100-µL aliquot of assay buffer supplemented with 2 × ligands was added at 20 s, and scanning was continued for an additional 40 s. The response of each well was determined as ∆RFU (delta relative fluorescent units), which was calculated as (maximum fluorescent value)—(minimum fluorescent value). […] Such normalized data from more than three independent experiments are reported as the mean ± standard error of the mean (SEM). Dose‒response fitting curves were calculated by Prism 9 (GraphPad Software, San Diego, CA) using nonlinear regression (log(agonist) vs. response—variable slope), based on the integrated data from the several independent experiments.

By EC50 is commonly meant the concentration that produces a half-maximal response. As for `C[C@H](N)C(=O)O` [L-Ala, L-alanine], on zfT1R2b/zfT1R3 (10 mM vs 141.4 mM Cl- buffer), the “EC50 in 10 mM Cl- buffer relative to high Cl- buffer” value is on record as “approximately half”. For the same compound, the midpoint of the response on zfT1R2b/zfT1R3 (EC50, [Cl-]o=10 mM, unit inferred), the EC50, lay at 1290 µM.

For `O=C([O-])[C@H](O)[C@@H](O)[C@H](O)[C@H](O)CO.[Na+]` [Na-gluconate, sodium gluconate], on zfT1R2a/zfT1R3, the “response to fixed concentration of L-Pro on coapplication” value was “did not enhance”.

Consider `[Cl-].[Na+]` [NaCl], for which the “response to fixed concentration of L-Pro on coapplication” value on zfT1R2a/zfT1R3 is recorded as “enhanced”. The “cellular response to the salt alone” value at zfT1R2a/zfT1R3 (without agonist) is “did not elicit”. Besides, at zfT1R2b/zfT1R3 (agonist L-Ala, buffers with 10-141.4 mM Cl-), the “[Cl-]o range in which a decrease in sensitivity was observed” value was 40 to 141.4 mM.
